# Measurements: ChEMBL document CHEMBL3132840 (Medchemcomm, 2014)
# Calls of active or inactive are those of the source. The rule behind the calls is not given here.
# Key:
# Homo sapiens = species on record: Homo sapiens; assay: Selectivity index, ratio of IC50 for human MAO-B to IC50 for human MAO-A
# Acetylcholinesterase = Acetylcholinesterase (Electrophorus electricus, UniProt O42275); assay: Inhibition of electric eel AChE using acetylthiocholine iodide as substrate incubated for 6 mins prior to substrate addition measured after 60 to 180 secs by Ellman's method
# Acetylcholinesterase, sequence (O42275 whole entry): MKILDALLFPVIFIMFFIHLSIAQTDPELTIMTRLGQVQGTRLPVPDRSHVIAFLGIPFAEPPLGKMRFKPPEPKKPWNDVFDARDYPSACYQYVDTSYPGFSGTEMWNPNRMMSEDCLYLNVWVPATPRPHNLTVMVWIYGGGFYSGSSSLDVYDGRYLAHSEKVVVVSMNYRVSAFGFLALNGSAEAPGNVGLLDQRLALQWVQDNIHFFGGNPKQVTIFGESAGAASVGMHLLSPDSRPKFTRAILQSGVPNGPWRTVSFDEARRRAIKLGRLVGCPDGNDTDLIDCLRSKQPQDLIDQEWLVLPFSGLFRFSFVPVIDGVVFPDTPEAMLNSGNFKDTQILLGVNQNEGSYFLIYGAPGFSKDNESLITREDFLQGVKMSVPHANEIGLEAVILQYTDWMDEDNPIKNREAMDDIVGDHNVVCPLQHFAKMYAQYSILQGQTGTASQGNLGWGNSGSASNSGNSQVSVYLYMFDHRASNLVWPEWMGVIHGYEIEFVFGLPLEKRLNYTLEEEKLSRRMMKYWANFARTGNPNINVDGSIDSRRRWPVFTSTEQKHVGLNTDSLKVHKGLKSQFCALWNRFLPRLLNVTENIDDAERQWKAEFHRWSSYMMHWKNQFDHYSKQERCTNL
# [1] = target: T1, Amine oxidase [flavin-containing] A (Homo sapiens, UniProt P21397)
# T1 sequence (P21397 whole entry): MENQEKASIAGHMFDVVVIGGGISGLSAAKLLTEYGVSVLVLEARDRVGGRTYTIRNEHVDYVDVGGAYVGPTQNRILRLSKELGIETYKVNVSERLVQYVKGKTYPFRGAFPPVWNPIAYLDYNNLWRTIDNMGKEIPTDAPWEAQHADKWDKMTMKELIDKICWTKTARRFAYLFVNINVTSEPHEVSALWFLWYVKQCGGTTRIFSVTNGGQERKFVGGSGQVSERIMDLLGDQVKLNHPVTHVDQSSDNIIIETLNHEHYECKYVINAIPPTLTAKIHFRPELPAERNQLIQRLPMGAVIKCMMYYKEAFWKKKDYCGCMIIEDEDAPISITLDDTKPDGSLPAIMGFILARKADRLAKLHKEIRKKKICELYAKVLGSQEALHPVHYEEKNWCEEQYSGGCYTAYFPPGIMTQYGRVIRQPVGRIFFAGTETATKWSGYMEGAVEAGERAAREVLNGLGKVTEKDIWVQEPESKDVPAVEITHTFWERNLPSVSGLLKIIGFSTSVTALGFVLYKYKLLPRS
# Cholinesterase = Cholinesterase (Equus caballus, UniProt P81908)
# Cholinesterase, sequence (P81908 whole entry): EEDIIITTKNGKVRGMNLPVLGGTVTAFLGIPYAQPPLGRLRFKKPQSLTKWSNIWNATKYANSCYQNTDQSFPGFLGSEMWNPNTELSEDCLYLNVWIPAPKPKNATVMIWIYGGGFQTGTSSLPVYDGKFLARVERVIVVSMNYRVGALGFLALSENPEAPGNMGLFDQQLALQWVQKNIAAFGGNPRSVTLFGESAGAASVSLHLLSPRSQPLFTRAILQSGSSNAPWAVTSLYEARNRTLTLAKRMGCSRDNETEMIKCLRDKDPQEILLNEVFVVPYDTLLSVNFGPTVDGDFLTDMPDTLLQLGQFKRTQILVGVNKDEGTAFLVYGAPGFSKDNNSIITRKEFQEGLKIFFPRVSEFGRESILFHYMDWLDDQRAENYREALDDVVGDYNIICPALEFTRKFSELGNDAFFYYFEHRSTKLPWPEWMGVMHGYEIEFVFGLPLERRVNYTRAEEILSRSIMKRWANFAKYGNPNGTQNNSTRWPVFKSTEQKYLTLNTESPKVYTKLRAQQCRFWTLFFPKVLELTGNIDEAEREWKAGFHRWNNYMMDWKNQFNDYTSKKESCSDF
# [2] = target: T2, Amine oxidase [flavin-containing] B (Homo sapiens, UniProt P27338)
# T2 sequence (P27338 whole entry): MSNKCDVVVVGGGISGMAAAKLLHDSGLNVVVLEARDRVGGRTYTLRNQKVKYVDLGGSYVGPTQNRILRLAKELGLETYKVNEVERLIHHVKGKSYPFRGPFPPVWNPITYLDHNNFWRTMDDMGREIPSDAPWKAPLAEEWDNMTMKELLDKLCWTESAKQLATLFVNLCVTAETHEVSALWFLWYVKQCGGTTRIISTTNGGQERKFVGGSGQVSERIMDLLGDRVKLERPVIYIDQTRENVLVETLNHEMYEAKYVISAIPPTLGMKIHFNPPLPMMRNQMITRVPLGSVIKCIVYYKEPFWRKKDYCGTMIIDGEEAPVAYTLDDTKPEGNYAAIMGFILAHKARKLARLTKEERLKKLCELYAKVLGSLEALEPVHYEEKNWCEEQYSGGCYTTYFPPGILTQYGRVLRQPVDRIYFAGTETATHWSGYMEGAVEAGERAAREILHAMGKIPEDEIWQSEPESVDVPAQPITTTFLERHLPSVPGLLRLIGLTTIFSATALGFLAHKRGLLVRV
# [3] = Cytotoxicity against human SH-SY5Y cells assessed as cell viability at 1 uM after 24 hrs by MTT assay; assay type: cell-based; settings: read-out: Activity
# [4] = Cytotoxicity against human SH-SY5Y cells assessed as cell viability at 10 uM after 24 hrs by MTT assay; assay type: cell-based; settings: read-out: Activity
# [5] = Cytotoxicity against human SH-SY5Y cells assessed as cell viability at 25 uM after 24 hrs by MTT assay; assay type: cell-based; settings: read-out: Activity
# [6] = Cytotoxicity against human SH-SY5Y cells assessed as cell viability at 5 uM after 24 hrs by MTT assay; assay type: cell-based; settings: read-out: Activity
# [7] = Cytotoxicity against human SH-SY5Y cells assessed as cell viability at 50 uM after 24 hrs by MTT assay; assay type: cell-based; settings: read-out: Activity
# [8] = target: Acetylcholinesterase (Electrophorus electricus) (UniProt O42275); assay: Mixed-type inhibition of electric eel AChE using acetylthiocholine iodide as substrate incubated for 15 mins prior to substrate addition by Lineweaver-Burk plot analysis
# Acetylcholinesterase (Electrophorus electricus), sequence (O42275 24-633 limits assumed): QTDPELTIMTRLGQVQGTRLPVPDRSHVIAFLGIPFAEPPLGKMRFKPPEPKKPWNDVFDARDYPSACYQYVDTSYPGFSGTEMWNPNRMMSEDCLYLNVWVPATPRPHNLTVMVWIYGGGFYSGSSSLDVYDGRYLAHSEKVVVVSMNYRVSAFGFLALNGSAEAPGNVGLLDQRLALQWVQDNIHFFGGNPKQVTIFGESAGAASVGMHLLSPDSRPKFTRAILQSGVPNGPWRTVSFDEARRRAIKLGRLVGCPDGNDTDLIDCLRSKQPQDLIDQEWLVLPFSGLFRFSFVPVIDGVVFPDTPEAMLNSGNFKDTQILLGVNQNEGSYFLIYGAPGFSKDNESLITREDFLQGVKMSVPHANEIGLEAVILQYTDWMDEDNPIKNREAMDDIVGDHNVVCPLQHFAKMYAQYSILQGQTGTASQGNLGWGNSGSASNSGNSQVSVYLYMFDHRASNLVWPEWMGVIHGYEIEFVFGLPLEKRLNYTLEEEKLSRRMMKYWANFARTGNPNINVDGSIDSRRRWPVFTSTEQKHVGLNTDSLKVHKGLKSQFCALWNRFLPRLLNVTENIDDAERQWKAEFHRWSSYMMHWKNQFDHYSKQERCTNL
Compound,Ratio IC50 (Homo sapiens),IC50 (Acetylcholinesterase) [µM],IC50 [1] [µM],IC50 (Cholinesterase) [µM],IC50 [2] [µM],"viability at 24 h, 1 µM [3] [%]","viability at 24 h, 10 µM [4] [%]","viability at 24 h, 25 µM [5] [%]","viability at 24 h, 5 µM [6] [%]","viability at 24 h, 50 µM [7] [%]",inhibition [8]
COc1cc(/C=C/c2ccc(OCCCCCCN3CCCCC3C)cc2)cc(OC)c1 (stereo unspecified),0.67,4.07,24.3,10.1,16.3,,,,,,
CCN(CCCCCCOc1ccc(/C=C/c2cc(OC)cc(OC)c2)cc1)Cc1ccccc1F,,86.6,> 100,53,> 100,,,,,,
CCN(CCCCCCOc1ccc(/C=C/c2cc(OC)cc(OC)c2)cc1)Cc1ccc(OC)cc1,,89.7,> 100,> 100,> 100,,,,,,
COc1cc(/C=C/c2ccc(OCCCCCCN(C)Cc3ccccc3)cc2)cc(OC)c1,0.45,11.7,90.4,26.4,40.3,,,,,,
CCN(CC)CCCCCCOc1ccc(/C=C/c2cc(OC)cc(OC)c2)cc1,0.31,4.15,33.1,13.2,10.1,,,,,,
CCCN(CCC)CCCCCCOc1ccc(/C=C/c2cc(OC)cc(OC)c2)cc1,1.03,12.1,89.4,7.49,92.4,,,,,,
COc1cc(/C=C/c2ccc(OCCCCCCN3CCCC3)cc2)cc(OC)c1,0.7,6.55,17.6,8.04,12.2,97,94.4,93.2,95.6,90.8,
COc1cc(/C=C/c2ccc(OCCCCCCN3CCC(O)CC3)cc2)cc(OC)c1,< 0.14,17.2,> 100,23.1,14.6,,,,,,
COc1cc(/C=C/c2ccc(OCCCCCCN3CCOCC3)cc2)cc(OC)c1,,24.4,> 100,34.3,> 100,,,,,,
COc1cc(/C=C/c2ccc(OCCN(C)Cc3ccccc3)cc2)cc(OC)c1,< 0.89,79.3,> 100,89.6,89,,,,,,
COc1cc(/C=C/c2ccc(OCCCCCCN3CCCCC3)cc2)cc(OC)c1,0.48,5.02,29.8,10.7,14.2,,,,,,
COc1cc(/C=C/c2ccc(OCCCN(C)Cc3ccccc3)cc2)cc(OC)c1,< 0.5,58.1,> 100,77.3,5.01,,,,,,
Oc1ccc(/C=C/c2cc(O)cc(O)c2)cc1 [RESVERATROL],,165,,752,,,,,,,
COc1cc(/C=C/c2ccc(OCCCCCCN(C)C)cc2)cc(OC)c1,0.2,8.19,37.5,10.3,7.52,,,,,,
CCN(CCCCCCOc1ccc(/C=C/c2cc(OC)cc(OC)c2)cc1)Cc1cccc(OC)c1,,71.5,> 100,> 100,> 100,,,,,,
CCN(CCCCCCOc1ccc(/C=C/c2cc(OC)cc(OC)c2)cc1)Cc1ccccc1,0.65,1.56,89.6,3.64,58.3,,,,,,Active
COc1cc(/C=C/c2ccc(OCCCCN(C)Cc3ccccc3)cc2)cc(OC)c1,< 0.35,60.9,> 100,40.6,34.6,,,,,,
COc1cc(/C=C/c2ccc(OCCCCCCCCN(C)Cc3ccccc3)cc2)cc(OC)c1,,26.5,> 100,46.8,> 100,,,,,,
COc1cc(/C=C/c2ccc(OCCCCCCCN(C)Cc3ccccc3)cc2)cc(OC)c1,< 0.64,23.4,> 100,41.7,63.8,,,,,,
CCN(CCCCCCOc1ccc(/C=C/c2cc(OC)cc(OC)c2)cc1)Cc1ccccc1OC,,54.9,> 100,2.27,> 100,,,,,,
CCN(CCCCCCOc1ccc(/C=C/c2cc(OC)cc(OC)c2)cc1)Cc1ccc(F)cc1,,92.3,> 100,85.4,> 100,,,,,,
COc1cc(/C=C/c2ccc(OCCCCCN(C)Cc3ccccc3)cc2)cc(OC)c1,0.16,39.2,97.4,43.7,16.2,,,,,,
CCN(CCCCCCOc1ccc(/C=C/c2cc(OC)cc(OC)c2)cc1)Cc1cccc(F)c1,< 0.97,77.8,> 100,52,97.5,,,,,,
